Several values for one entry are separate records, joined by “and”; a condition that tells them apart may be missing. Equal entries are not always repeated. Entries after “also recorded” stand apart in the source; their conditions may differ.
Key:
KRAS^G12D-GDP [1] = target: T1, KRAS^G12D-GDP (Homo sapiens (Human), UniProt P01116, G12D); assay: 19F DLB score, KRAS^G12D-GDP; type: binding; parameters: scale not given here
Procedure: (§1) Since the fragment library was curated using phosphate buffer, 25 mM sodium phosphate pH 7.4, 150 mM NaCl, 5 mM MgCl2, 1 mM TCEP-d16, 10% D2O Fresh TCEP was used for experiments. Screening was performed using ^1H-decoupled 1D ^19F experiment Bruker experiment (zgfhigqn.2) with 64 scans and a relaxation delay of 5 seconds. 50 μM HRas^G12V and 240 μM of each fragment in pools (mixtures) were used.
(§2) Hit confirmation was performed using the same ^19F experiment as the screen. Ligand-observed 1D ^1H, protein-observed 1D ^1H, ^1H T2-CPMG as well as Saturation Transfer Difference (STD) experiments were also run on the same samples. Ligand-observed 1D ^1H was run using the standard Bruker sequence with excitation sculpting (zgesgp) with a relaxation delay of 10 seconds and 16 scans per spectrum. Protein-observed 1D ^1H was performed using the same sequence with a relaxation delay of 1 second and 256 scans in order to increase the signal-to-noise of the protein resonances, while keeping the experimental time relatively short. The ^1H T2-CPMG experiment employed a modified version of the Bruker 1D ^1H zgesgp experiment with the addition of a CPMG pulse train after the first 90° excitation pulse. Total duration for each spin echo was fixed at 1 ms (τ=500 μs), while the number of echoes in the pulse train was varied according to the total time (T). The number of scans for each spectrum was 4 and eight delay times were run on each sample, ranging from 1 ms to 800 ms.
(§3) The activity of compounds of the invention regarding KRAS^G12D-GDP was measured in the same as in Example 80. The results obtained with the compounds in the various assays described above are depicted in Table 23.

HRas^G12V [2] = target: T2, HRas^G12V (Homo sapiens (Human), UniProt P01112, G12V); assay: 19F DLB (ligand-observed 19F NMR) score; type: binding; parameters: scale not given here
In short: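 In the T2-CPMG experiment, echo spacing was 1 ms and total delays ranged over eight values from 1 to 800 ms. Both scores come from 600 MHz NMR of 50 μM HRas G12V mixed with fragment pools at 240 μM each, in phosphate buffer pH 7.4 with NaCl, MgCl2 and TCEP-d16. Ligand-observed 19F spectra were recorded with 1H decoupling, 64 scans and a 5 s relaxation delay.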

HRas^G12V [3] = target: T2, HRas^G12V; assay: Dissociation constant by NMR (1H/15N Fast-HSQC, 1H 1D protein-observed); type: binding; conditions: HRas^G12V; read-out: NMR Kd
HRas^G12V [4] = target: T2, HRas^G12V; assay: Overall binding/activity in the various assays (NMR consensus binding)
In short: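 Fragments (240 µM each, pooled) screened against 50 µM HRas^G12V in 25 mM sodium phosphate pH 7.4, 150 mM NaCl, 5 mM MgCl2, 1 mM TCEP-d16 by 1H-decoupled 1D 19F NMR. Hits confirmed by ligand- and protein-observed 1D 1H, STD and T2-CPMG (aggregation check); consensus binding ranked, with 15N HSQC for sites and Kd.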

KRAS^G12D-GDP [5] = target: T1, KRAS^G12D-GDP; assay: 19F T2-CPMG score, KRAS^G12D-GDP; type: binding
Procedure: as §1, §2, §3

T1 sequence (P01116-2 other isoform, or with tags, fused parts or gaps G12D): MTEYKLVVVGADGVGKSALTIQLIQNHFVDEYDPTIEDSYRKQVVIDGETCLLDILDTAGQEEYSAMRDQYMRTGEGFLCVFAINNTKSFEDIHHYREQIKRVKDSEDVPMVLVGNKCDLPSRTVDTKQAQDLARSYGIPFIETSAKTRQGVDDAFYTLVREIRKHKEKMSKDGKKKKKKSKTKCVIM

| 19F DLB Score (KRAS^G12D-GDP [1]) | 19F DLB Score (HRas^G12V [2]) | Kd (HRas^G12V [3]) | Activity ranking on HRas^G12V (in words) (HRas^G12V [4]) | 19F T2-CPMG Score (KRAS^G12D-GDP [5]) | SMILES |
| --- | --- | --- | --- | --- | --- |
| 1.73 | 1.64 and 1.79 and 1.93 and 1.86 and 1.71 | 3030 to 3700 µM | More active | 12.20 | CC(C)N1CCC(NC(=O)Cc2c[nH]c3cc(F)ccc23)CC1 [Compound 10018] |
| 3.33 | 3.04 | 2370 to 4000 µM | More active | >LOQ | O=C(Cc1c[nH]c2cc(F)ccc12)N1CCC(O)CC1 [Compound 10086] |
| 3.56 | 4.19 | 36 µM | More active; also recorded: Most active | >LOQ | CN(C)CCOc1cccc(NC(=O)Cc2c[nH]c3cc(F)ccc23)c1 [Compound 10095, N-(3-(2-(dimethylamino)ethoxy)phenyl)-2-(6-fluoro-1H-indol-3-yl)acetamide] |
| 4.36 | 3.84 | 108 µM | More active; also recorded: Most active | >LOQ | CN(C)CC(=O)Nc1cccc(NC(=O)Cc2c[nH]c3cc(F)ccc23)c1 [compound 10097] |

Source: US20240408064A1, “RAS INHIBITORS, COMPOSITIONS AND METHODS OF USE THEREOF” (GENETOLEAD INC., priority 2021, published 2024)
